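Growth conditions: 96-well plates. Treatment: test compound, 48 hours, 5 concentrations. Analysis: linear interpolation between bracketing concentrations; unreached endpoints set to highest concentration. GI50 marks 50% less growth. The concentration for full growth arrest is given as TGI.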
Assays:
Assay in all cases: NCI-60 cell line screen, 48 h
TK-10 renal = tested on: TK-10 renal
HS 578T breast = tested on: HS 578T breast
ACHN renal = tested on: ACHN renal
SR leukemia = tested on: SR leukemia
SN12C renal = tested on: SN12C renal
SNB-19 CNS = tested on: SNB-19 CNS
SW-620 colon = tested on: SW-620 colon
LOX IMVI melanoma = tested on: LOX IMVI melanoma
OVCAR-3 ovarian = tested on: OVCAR-3 ovarian
SK-OV-3 ovarian = tested on: SK-OV-3 ovarian
SK-MEL-5 melanoma = tested on: SK-MEL-5 melanoma
PC-3 prostate = tested on: PC-3 prostate
U251 CNS = tested on: U251 CNS
M14 melanoma = tested on: M14 melanoma
DU-145 prostate = tested on: DU-145 prostate
CAKI-1 renal = tested on: CAKI-1 renal
SF-539 CNS = tested on: SF-539 CNS
T-47D breast = tested on: T-47D breast
K-562 leukemia = tested on: K-562 leukemia
SK-MEL-28 melanoma = tested on: SK-MEL-28 melanoma
MALME-3M melanoma = tested on: MALME-3M melanoma
MDA-MB-435 = tested on: MDA-MB-435
NCI-H23 lung = tested on: NCI-H23 lung
UO-31 renal = tested on: UO-31 renal
UACC-257 melanoma = tested on: UACC-257 melanoma
OVCAR-4 ovarian = tested on: OVCAR-4 ovarian
UACC-62 melanoma = tested on: UACC-62 melanoma
786-0 renal = tested on: 786-0 renal
HCT-15 colon = tested on: HCT-15 colon
MOLT-4 leukemia = tested on: MOLT-4 leukemia
SK-MEL-2 melanoma = tested on: SK-MEL-2 melanoma
A498 renal = tested on: A498 renal
HCT-116 colon = tested on: HCT-116 colon
MDA-MB-231 breast = tested on: MDA-MB-231 breast
OVCAR-5 ovarian = tested on: OVCAR-5 ovarian
A549 NSCLC = tested on: A549 NSCLC
NCI-H460 lung = tested on: NCI-H460 lung
HCC-2998 colon = tested on: HCC-2998 colon
OVCAR-8 ovarian = tested on: OVCAR-8 ovarian
RXF 393 renal = tested on: RXF 393 renal
SNB-75 CNS = tested on: SNB-75 CNS
MCF7 breast = tested on: MCF7 breast
KM12 colon = tested on: KM12 colon
COLO 205 colon = tested on: COLO 205 colon
SF-295 CNS = tested on: SF-295 CNS
NCI-H522 lung = tested on: NCI-H522 lung
EKVX NSCLC = tested on: EKVX NSCLC
HL-60(TB) leukemia = tested on: HL-60(TB) leukemia
HT29 colon = tested on: HT29 colon
RPMI-8226 leukemia = tested on: RPMI-8226 leukemia
NCI/ADR-RES ovarian = tested on: NCI/ADR-RES ovarian
HOP-92 NSCLC = tested on: HOP-92 NSCLC
IGROV1 ovarian = tested on: IGROV1 ovarian
BT-549 breast = tested on: BT-549 breast
HOP-62 NSCLC = tested on: HOP-62 NSCLC

CCCCCCCCCCCCCC[P+](CCCCCC)(CCCCCC)CCCCCC
GI50 (TK-10 renal): 198 nM | TGI (TK-10 renal): 1920 nM | GI50 (HS 578T breast): 41 nM | GI50 (ACHN renal): 260 nM | TGI (ACHN renal): 1510 nM | GI50 (SR leukemia): 19.6 nM | TGI (SR leukemia): 60.8 nM | GI50 (SN12C renal): 41 nM | TGI (SN12C renal): 1170 nM | GI50 (SNB-19 CNS): 68.8 nM | TGI (SNB-19 CNS): > 100000 nM | GI50 (SW-620 colon): 34.1 nM | TGI (SW-620 colon): 1150 nM | GI50 (LOX IMVI melanoma): 58.3 nM | TGI (LOX IMVI melanoma): 497 nM | GI50 (OVCAR-3 ovarian): 34.5 nM | TGI (OVCAR-3 ovarian): 295 nM | GI50 (SK-OV-3 ovarian): 200 nM | GI50 (SK-MEL-5 melanoma): 82.9 nM | TGI (SK-MEL-5 melanoma): 258 nM | GI50 (PC-3 prostate): 30 nM | TGI (PC-3 prostate): 125 nM | GI50 (U251 CNS): 38.4 nM | TGI (U251 CNS): 1290 nM | GI50 (M14 melanoma): 52.1 nM | TGI (M14 melanoma): 2910 nM | GI50 (DU-145 prostate): 85.7 nM | TGI (DU-145 prostate): 1680 nM | GI50 (CAKI-1 renal): 236 nM | TGI (CAKI-1 renal): 771 nM | GI50 (SF-539 CNS): 202 nM | TGI (SF-539 CNS): 1720 nM | GI50 (T-47D breast): 50.1 nM | GI50 (K-562 leukemia): 23.2 nM | TGI (K-562 leukemia): 85.8 nM | GI50 (SK-MEL-28 melanoma): 101 nM | TGI (SK-MEL-28 melanoma): 1440 nM | GI50 (MALME-3M melanoma): 27.1 nM | TGI (MALME-3M melanoma): 72.1 nM | GI50 (MDA-MB-435): 37.2 nM | TGI (MDA-MB-435): 391 nM | GI50 (NCI-H23 lung): 83 nM | TGI (NCI-H23 lung): 1400 nM | GI50 (UO-31 renal): 290 nM | GI50 (UACC-257 melanoma): 75.5 nM | TGI (UACC-257 melanoma): 790 nM | GI50 (OVCAR-4 ovarian): 126 nM | GI50 (UACC-62 melanoma): 42.2 nM | TGI (UACC-62 melanoma): 1900 nM | GI50 (786-0 renal): 253 nM | TGI (786-0 renal): 2100 nM | GI50 (HCT-15 colon): 270 nM | TGI (HCT-15 colon): > 100000 nM | GI50 (MOLT-4 leukemia): 68.9 nM | TGI (MOLT-4 leukemia): 952 nM | GI50 (SK-MEL-2 melanoma): 26.6 nM | TGI (SK-MEL-2 melanoma): > 100000 nM | TGI (A498 renal): 1030 nM | GI50 (HCT-116 colon): 60.6 nM | TGI (HCT-116 colon): > 100000 nM | GI50 (MDA-MB-231 breast): 59.6 nM | TGI (MDA-MB-231 breast): 1490 nM | GI50 (OVCAR-5 ovarian): 267 nM | GI50 (A549 NSCLC): 292 nM | TGI (A549 NSCLC): > 100000 nM | GI50 (NCI-H460 lung): 315 nM | TGI (NCI-H460 lung): 1220 nM | GI50 (HCC-2998 colon): 168 nM | TGI (HCC-2998 colon): 1690 nM | GI50 (OVCAR-8 ovarian): 85.6 nM | TGI (OVCAR-8 ovarian): 1780 nM | GI50 (RXF 393 renal): 141 nM | TGI (RXF 393 renal): 1400 nM | GI50 (SNB-75 CNS): 125 nM | GI50 (MCF7 breast): 146 nM | TGI (MCF7 breast): 1300 nM | GI50 (KM12 colon): 39.7 nM | TGI (KM12 colon): 375 nM | GI50 (COLO 205 colon): 144 nM | TGI (COLO 205 colon): 2080 nM | GI50 (SF-295 CNS): 78.3 nM | TGI (SF-295 CNS): 432 nM | GI50 (NCI-H522 lung): 105 nM | TGI (NCI-H522 lung): 956 nM | GI50 (EKVX NSCLC): 63.2 nM | TGI (EKVX NSCLC): 917 nM | GI50 (HL-60(TB) leukemia): 30.3 nM | TGI (HL-60(TB) leukemia): 96.6 nM | GI50 (HT29 colon): 52.7 nM | TGI (HT29 colon): 3260 nM | GI50 (RPMI-8226 leukemia): 15.8 nM | TGI (RPMI-8226 leukemia): 39.5 nM | GI50 (NCI/ADR-RES ovarian): 730 nM | TGI (NCI/ADR-RES ovarian): > 100000 nM | GI50 (HOP-92 NSCLC): 29.9 nM | TGI (HOP-92 NSCLC): 423 nM | GI50 (IGROV1 ovarian): 70.5 nM | TGI (IGROV1 ovarian): 25700 nM | GI50 (BT-549 breast): 41.2 nM | TGI (BT-549 breast): 381 nM | GI50 (HOP-62 NSCLC): 229 nM
